In patent publication US5585382A, “Polycyclic and heterocyclic chromophores for bis-imide tumoricidals” (The DuPont Merck Pharmaceutical Company, priority 1995, dated 1996):
Like-named read-outs stand apart in the source and are kept apart here.

Columns and labels:
[1] = tested on: Murine leukemia L1210 cells; experiment: In vitro growth inhibition of L1210 cells (MTT, 72 hr); type: cell-based; conditions: Mus musculus, read-out: L1210 IC50
Outline: (§1)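 Cells seeded on day 0 (1×10^3 L1210 or 8×10^2 Clone A per well), graded compound concentrations added on day 1, then 72 hr at 37 °C. MTT 4 h, formazan dissolved in acidic isopropanol, read at 570/630 nm; IC50 from curve fit as half-maximal inhibition of population doublings, eight replicates.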

[2] = tested on: Clone A human colon cancer cells; experiment: In vitro growth inhibition of Clone A cells (MTT, 72 hr); type: cell-based; conditions: read-out: Clone A IC50
Outline: as §1

DLD-2 human colon tumor = experiment: In vivo human tumor xenograft DLD-2 in nude mice; conditions: for Tumor Growth Inhibition activity against DLD-2 (in words): NCI criteria
From the text: (§2) The DLD-2 human colon tumor and MX-1 human mammary carcinoma, were originally obtained from a surgically-removed primary colon carcinoma or breast tumor respectively. The human tumor lines were maintained by serial passage in athymic nude mice. The MX-1 human mammary carcinoma is an established tumor used by the NCI. The DLD-2 human colon tumor has been well characterized. (Dexter, D. L.; Spremulli, E. N.; Matook, G. M.; Diamond, I.; Calabresi, P. Cancer Research 1982, 42, 5010; Dexter, D. L.; Barbosa, J. A.; Calabresi, P. Cancer Research 1979, 39, 1020.)
(§3) The mice used in these experiments were outbred Swiss mice or CD-1 mice bearing the nude (nu/nu) gene. On Day 0, male and female mice weighing 22-30 g are inoculated with 0.2 mL of a 25% tumor mince. This mince is prepared by mincing fresh tumor tissue, grown subcutaneously in passage mice, in sterile physiological saline. Palpable tumors weighing approximately 50 mg appear in the mice within 7-10 days after inoculation. The mice are pair matched by tumor weight and sex into groups of ten each and the test compounds and vehicle control are administered intravenously (i.v.) once daily for nine consecutive days. A >20% decrease in body weight on Day 5 following compound administration is considered an indication of toxicity. Tumor measurements and body weights are recorded once a week. Fifteen to eighteen days after the initial injection the mice are weighed, sacrificed, and the tumors excised and weighed.
(§4) The efficacy of the test compounds is determined by the extent of tumor growth inhibition in treated versus vehicle-treated control mice. Initial tumor weights (mg) are calculated from the tumor dimensions (mm) obtained from caliper measurements, using the formula for a prolate ellipsoid (mg of tumor weight=(length×width^2)/2). Net tumor weights are calculated for each of the treated groups and the vehicle-treated control group by subtracting the initial tumor weight from the final tumor weight (Day 15-18). Results are expressed as a percentage decrease relative to the mean tumor weight for the control vehicle-treated group.
(§5) Tumor Growth Inhibition= [formula]
(§6) The evaluation criteria of the National Cancer Institute for activity in in vivo cancer models were used. Tumor growth inhibition of 58-89% against the various xenografts is considered moderate activity, and inhibition of ≥90% is considered good to excellent activity. Actual tumor regressions (IR=incomplete regression; FR=full regression) indicate excellent to outstanding activity.

[3] = tested on: MX-1 human mammary carcinoma; experiment: In vivo human tumor xenograft MX-1 in nude mice; conditions: for Tumor Growth Inhibition activity against MX-1 (in words): NCI criteria
From the text: as §2, §3, §4, §5, §6

physchem = conditions: water
[4] = i.v. once daily for nine days, nude mice
[5] = Mus musculus, DLD2, iv, 216 h, read-out: DLD-2 percent tumor growth inhibition
[6] = Mus musculus, iv, 216 h, read-out: MX-1 tumor regressions, IR=incomplete regression
[7] = Mus musculus, iv, 216 h, read-out: MX-1 percent tumor growth inhibition

Question: For `CS(=O)(=O)O.CS(=O)(=O)O.C[C@H](CNCCNC[C@@H](C)N1C(=O)c2cccc3c2c(cc2ccncc23)C1=O)N1C(=O)c2cccc3cc([N+](=O)[O-])cc(c23)C1=O` [Example 118, (R,R)-1-[2-(6-Azaphenanthrene-1,10-dicarboximido)propylamino]-2-[2-(3-nitronaphthalene-1,8-dicarboximido)propylamino]ethane Dihydromethanesulfonate], which IC50 ([1]; L1210 cells, 72 hr, MTT) is on record?
Answer: 0.029 µg/mL

Question: What about the IC50 ([2]; Clone A cells, 72 hr, MTT) of the same molecule?
Answer: 0.0008 µg/mL

Question: And the “DLD-2 tumor regressions, IR=incomplete regression” value (from here on “DLD-2 tumor regressions”) (DLD-2 human colon tumor; 6 mg/kg, i.v. once daily for nine days, nude mice)?
Answer: 7/9

Question: What about the inhibition in vivo at 6 mg/kg (DLD-2 human colon tumor; Mus musculus, DLD2, iv, 216 h, 6 mg/kg, i.v. once daily for nine days, nude mice, read-out: DLD-2 percent tumor growth inhibition) of the same molecule?
Answer: 99%

Question: What about the “Tumor Growth Inhibition activity against DLD-2 (in words)” value (DLD-2 human colon tumor; [4]) of the same molecule?
Answer: moderate to excellent

Question: What about the responders at 3 mg/kg ([3]; Mus musculus, iv, 216 h, 3 mg/kg, i.v. once daily for nine days, nude mice, read-out: MX-1 tumor regressions, IR=incomplete regression (converted)) of the same molecule?
Answer: 100%

Question: And the “Tumor Growth Inhibition activity against MX-1 (in words)” value [3, 4]?
Answer: moderate to excellent

Question: And the solubility (physchem)?
Answer: 65100 µg/mL

Question: Which IC50 ([1]; L1210, 72 h) does the source give for `CS(=O)(=O)O.CS(=O)(=O)O.C[C@H](CNCCNC[C@@H](C)N1C(=O)c2cc([N+](=O)[O-])cc3c2c(cc2cccnc23)C1=O)N1C(=O)c2cc([N+](=O)[O-])cc3c2c(cc2cccnc23)C1=O` [Example 8, (R,R)-1,2-bis-[2-(3-Nitro-5-azaphenanthrene-1,10-dicarboximido)propylamino]ethane Dihydromethanesulfonate] here?
Answer: 0.03 µg/mL

Question: And the IC50 ([2]; 72 h)?
Answer: 0.008 µg/mL

Question: What about the “DLD-2 tumor regressions” value (DLD-2 human colon tumor; 10 mg/kg, i.v. once daily for nine days, nude mice) of the same molecule?
Answer: 2/9

Question: And the inhibition in vivo at 10 mg/kg (DLD-2 human colon tumor; [5])?
Answer: 95%

Question: And the “Tumor Growth Inhibition activity against DLD-2 (in words)” value (DLD-2 human colon tumor; [4])?
Answer: moderate to excellent

Question: What about the “MX-1 tumor regressions, FR=full regression” value ([3]; 5 mg/kg, i.v. once daily for nine days, nude mice) of the same molecule?
Answer: 2/9

Question: And the responders at 5 mg/kg [3, 6]?
Answer: 77.8%

Question: What about the “Tumor Growth Inhibition activity against MX-1 (in words)” value [3, 4] of the same molecule?
Answer: moderate to excellent

Question: And the solubility (Solubility in water)?
Answer: 4000 µg/mL

Question: For `CS(=O)(=O)O.CS(=O)(=O)O.Cc1cnc2c(c1)cc1c3c(cc([N+](=O)[O-])cc32)C(=O)N([C@H](C)CNCCNC[C@@H](C)N2C(=O)c3cc([N+](=O)[O-])cc4c3c(cc3cc(C)cnc34)C2=O)C1=O` [Example 13, (R, R) -1,2-bis-[2-(3-Nitro-7-methyl-5-azaphenanthrene-1, 10-dicarboximido)propylamino]ethane Dihydromethanesulfonate], which IC50 ([1]; L1210, 72 h) is on record?
Answer: 0.065 µg/mL

Question: What about the IC50 ([2]; 72 h) of the same molecule?
Answer: 0.03 µg/mL

Question: And the “DLD-2 tumor regressions” value (DLD-2 human colon tumor; 12.5 mg/kg, i.v. once daily for nine days, nude mice)?
Answer: 1/9

Question: What about the inhibition in vivo at 12.5 mg/kg (DLD-2 human colon tumor; [5]) of the same molecule?
Answer: 90%

Question: What about the “Tumor Growth Inhibition activity against DLD-2 (in words)” value (DLD-2 human colon tumor; [4]) of the same molecule?
Answer: moderate to excellent

Question: What about the inhibition in vivo at 12.5 mg/kg [3, 7] of the same molecule?
Answer: 99%

Question: And the responders at 12.5 mg/kg [3, 6]?
Answer: 77.8%

Question: And the “Tumor Growth Inhibition activity against MX-1 (in words)” value [3, 4]?
Answer: moderate to excellent

Question: And the solubility (Solubility in water)?
Answer: 7100 µg/mL

Question: Which IC50 ([1]; L1210, 72 h) does the source give for `CS(=O)(=O)O.O=C1c2cccc3cc([N+](=O)[O-])cc(c23)C(=O)N1CCCCNCCCN1C(=O)c2cc([N+](=O)[O-])cc3c2c(cc2cccnc23)C1=O` [Example 111, 4-[3-(3-Nitro-5-azaphenanthrene-1,10-dicarboximido)propylamino]-1-(3-nitronaphthalene-1,8-dicarboximido)butane Hydromethanesulfonate] here?
Answer: 0.003 µg/mL

Question: What about the IC50 ([2]; 72 h) of the same molecule?
Answer: 0.002 µg/mL

Question: What about the “DLD-2 tumor regressions” value (DLD-2 human colon tumor; 18 mg/kg, i.v. once daily for nine days, nude mice) of the same molecule?
Answer: 2/7

Question: And the inhibition in vivo at 18 mg/kg (DLD-2 human colon tumor; [5])?
Answer: 99%

Question: What about the “Tumor Growth Inhibition activity against DLD-2 (in words)” value (DLD-2 human colon tumor; [4]) of the same molecule?
Answer: moderate to excellent

Question: What about the “MX-1 tumor regressions, FR=full regression” value ([3]; 20 mg/kg, i.v. once daily for nine days, nude mice) of the same molecule?
Answer: 1/9

Question: What about the inhibition in vivo at 20 mg/kg [3, 7] of the same molecule?
Answer: 99%

Question: And the responders at 20 mg/kg [3, 6]?
Answer: 77.8%

Question: What about the “Tumor Growth Inhibition activity against MX-1 (in words)” value [3, 4] of the same molecule?
Answer: moderate to excellent

Question: And the solubility (Solubility in water)?
Answer: 240 µg/mL
